How the values were obtained:
[1] = High temperature stability study of compounds (60° C.); assay type: physicochemical; conditions: in the dark; for Ketorolac (%): related substance
Description: Test protocol: the compounds prepared in the present disclosure were placed in a colorless and transparent vial, placed in the dark at a high temperature (60° C.), and were sampled for day 0, day 5 and day 10, respectively, and the purity of the compounds and the change of the related substance (ketorolac) were determined.

[2] = Stability study of levorotatory enantiomer of compounds in solvent (MCT); assay type: physicochemical; conditions: MCT solution; for Isomer (%): dextrorotatory form
Description: 2. Test method: the samples were prepared according to Table 2, wherein each sample was dispensed into 10 vials according to the lofting volume, and the samples were lofted according to Table 3.
4. The related substance was determined according to high performance liquid chromatography (General Chapter 0512, China Pharmacopoeia, 2015 Edition).
(1) Chromatographic conditions: the chromatography column was Agilent ZORBAX SB-C8, 4.6 mm×250 mm, 5 μm, and 0.1% phosphoric acid solution-acetonitrile (50:50) was used as a mobile phase; the detection wavelength was […]; the flow rate was 1.0 mL/min; the column temperature was 40° C., and linear gradient elution was performed according to the following table;
(§1) (2) Determination method: an appropriate amount of the product was weighed precisely, a diluent (absolute ethanol) was added and shaken to dissolve, and quantitatively diluted to give a solution containing 0.4 mg per 1 mL, the solution was […] by vortex for 30 s, and filtered with PTFE filter membrane (0.22 μm, JINTENG), and the filtrate was collected as a test sample solution. 10 μL of the solution was weighed precisely and injected into a liquid chromatograph, and a chromatogram was recorded; if an impurity peak existed in the chromatogram of the test sample solution, calculation was performed according to a peak area normalization method to give the target product.
5. Isomer determination was performed according to high performance liquid chromatography (General Chapter 0512, China Pharmacopoeia, 2015 Edition).
(1) Chromatographic conditions: cellulose-tris(3,5-dimethylphenylcarbamate)silica gel was used as filler (Chiralcel OD-H, 250×4.6 mm, 5 μm); n-hexane-isopropanol (90:10) was used as a mobile phase, and isocratic elution was performed for 25 min at a flow rate of 1.0 mL/min; the column temperature was 35° C.; the detection wavelength was 310 nm.
as §1, with “(n-hexane-isopropanol (90:10))” for “(absolute ethanol)”, “about 1.0” for “0.4”, “20” for “10”, “isomer” for “impurity”

Row | Compound | Ketorolac (%) ([2]; 5° C., Day 5) | Purity (%) ([2]; 5° C., Day 5) | Ketorolac (%) ([2]; 5° C., Day 15) | Purity (%) ([2]; 5° C., Day 15) | Ketorolac (%) ([2]; 5° C., Day 30) | Purity (%) ([2]; 5° C., Day 30) | Ketorolac (%) ([2]; 5° C., day 0) | Purity (%) ([2]; 5° C., day 0) | Ketorolac (%) ([2]; 25° C., Day 5) | Purity (%) ([2]; 25° C., Day 5) | Ketorolac (%) ([2]; 25° C., Day 15) | Purity (%) ([2]; 25° C., Day 15) | Ketorolac (%) ([2]; 25° C., Day 30) | Purity (%) ([2]; 25° C., Day 30) | Ketorolac (%) ([2]; 25° C., day 0) | Purity (%) ([2]; 25° C., day 0) | Ketorolac (%) ([2]; 60° C., Day 5) | Purity (%) ([2]; 60° C., Day 5) | Ketorolac (%) ([2]; 60° C., Day 15) | Purity (%) ([2]; 60° C., Day 15) | other results
1 | CCOC(=O)OC(OC(=O)C1CCn2c(C(=O)c3ccccc3)ccc21)C(C)C (stereo not drawn) [N18] | – | – | – | – | – | – | – | – | – | – | – | – | – | – | – | – | – | – | – | – | Total main peak purity (%) ([1]; Day 0): 94.25%; Total main peak purity (%) ([1]; Day 5): 92.10%; Total main peak purity (%) ([1]; Day 10): 91.78%; Ketorolac (%) ([1]; Day 0): 0.06%; Ketorolac (%) ([1]; Day 5): 0.18%; Ketorolac (%) ([1]; Day 10): 0.26%
2 | CC(C)OC(=O)OC(C)OC(=O)[C@H]1CCn2c(C(=O)c3ccccc3)ccc21 (stereo partly drawn) [N2(S)] | 0.2% | 99.08% | 0.14% | 99.18% | 0.25% | 99.01% | 0.16% | 99.14% | 0.21% | 99.08% | 0.17% | 99.13% | 0.28% | 98.95% | 0.16% | 99.14% | 0.3% | 98.92% | 0.49% | 98.67% | Ketorolac (%) ([2]; 60° C., Day 30): 0.65%; Purity (%) ([2]; 60° C., Day 30): 98.38%; Ketorolac (%) ([2]; 60° C., day 0): 0.16%; Purity (%) ([2]; 60° C., day 0): 99.14%; Isomer (%) ([2]; 5° C., Day 5): 5.63%; Isomer (%) ([2]; 5° C., Day 15): 5.87%; Isomer (%) ([2]; 5° C., Day 30): 5.99%; Isomer (%) ([2]; 5° C., day 0): 5.65%; Isomer (%) ([2]; 25° C., Day 5): 5.66%; Isomer (%) ([2]; 25° C., Day 15): 5.86%; Isomer (%) ([2]; 25° C., Day 30): 6.01%; Isomer (%) ([2]; 25° C., day 0): 5.65%; Isomer (%) ([2]; 60° C., Day 5): 5.7%; Isomer (%) ([2]; 60° C., Day 15): 5.89%; Isomer (%) ([2]; 60° C., Day 30): 6.13%; Isomer (%) ([2]; 60° C., day 0): 5.65%
3 | CCOC(=O)OC(CC)OC(=O)[C@H]1CCn2c(C(=O)c3ccccc3)ccc21 (stereo partly drawn) [N15(S)] | 0.02% | 99.46% | 0.02% | 99.45% | 0.03% | 99.38% | 0.03% | 99.48% | 0.03% | 99.42% | 0.03% | 99.41% | 0.05% | 99.33% | 0.03% | 99.48% | 0.06% | 99.35% | 0.17% | 99.21% | Ketorolac (%) ([2]; 60° C., Day 30): 0.35%; Purity (%) ([2]; 60° C., Day 30): 98.92%; Ketorolac (%) ([2]; 60° C., day 0): 0.03%; Purity (%) ([2]; 60° C., day 0): 99.48%; Isomer (%) ([2]; 5° C., Day 5): 4.58%; Isomer (%) ([2]; 5° C., Day 15): 4.73%; Isomer (%) ([2]; 5° C., Day 30): 4.62%; Isomer (%) ([2]; 5° C., day 0): 4.59%; Isomer (%) ([2]; 25° C., Day 5): 4.58%; Isomer (%) ([2]; 25° C., Day 15): 4.72%; Isomer (%) ([2]; 25° C., Day 30): 4.64%; Isomer (%) ([2]; 25° C., day 0): 4.59%; Isomer (%) ([2]; 60° C., Day 5): 4.59%; Isomer (%) ([2]; 60° C., Day 15): 4.75%; Isomer (%) ([2]; 60° C., Day 30): 4.63%; Isomer (%) ([2]; 60° C., day 0): 4.59%
4 | CCC(OC(=O)OC(C)C)OC(=O)[C@H]1CCn2c(C(=O)c3ccccc3)ccc21 (stereo partly drawn) [N16(S)] | 0.03% | 99.55% | 0.02% | 99.65% | 0.03% | 99.52% | 0.02% | 99.71% | 0.03% | 99.52% | 0.03% | 99.63% | 0.04% | 99.48% | 0.02% | 99.71% | 0.05% | 99.52% | 0.12% | 99.51% | Ketorolac (%) ([2]; 60° C., Day 30): 0.24%; Purity (%) ([2]; 60° C., Day 30): 99.27%; Ketorolac (%) ([2]; 60° C., day 0): 0.02%; Purity (%) ([2]; 60° C., day 0): 99.71%; Isomer (%) ([2]; 5° C., Day 5): 2.47%; Isomer (%) ([2]; 5° C., Day 15): 2.6%; Isomer (%) ([2]; 5° C., Day 30): 2.58%; Isomer (%) ([2]; 5° C., day 0): 2.46%; Isomer (%) ([2]; 25° C., Day 5): 2.47%; Isomer (%) ([2]; 25° C., Day 15): 2.6%; Isomer (%) ([2]; 25° C., Day 30): 2.59%; Isomer (%) ([2]; 25° C., day 0): 2.46%; Isomer (%) ([2]; 60° C., Day 5): 2.48%; Isomer (%) ([2]; 60° C., Day 15): 2.61%; Isomer (%) ([2]; 60° C., Day 30): 2.63%; Isomer (%) ([2]; 60° C., day 0): 2.46%
5 | CCOC(=O)OC(C)OC(=O)[C@H]1CCn2c(C(=O)c3ccccc3)ccc21 (stereo partly drawn) [N12(S)] | 0.02% | 99.62% | 0.02% | 99.64% | 0.03% | 99.55% | 0.02% | 99.65% | 0.03% | 99.59% | 0.04% | 99.61% | 0.07% | 99.49% | 0.02% | 99.65% | 0.09% | 99.53% | 0.23% | 99.35% | Ketorolac (%) ([2]; 60° C., Day 30): 0.41%; Purity (%) ([2]; 60° C., Day 30): 99.05%; Ketorolac (%) ([2]; 60° C., day 0): 0.02%; Purity (%) ([2]; 60° C., day 0): 99.65%; Isomer (%) ([2]; 5° C., Day 5): 3.05%; Isomer (%) ([2]; 5° C., Day 15): 3.07%; Isomer (%) ([2]; 5° C., Day 30): 3.06%; Isomer (%) ([2]; 5° C., day 0): 3.01%; Isomer (%) ([2]; 25° C., Day 5): 3.04%; Isomer (%) ([2]; 25° C., Day 15): 3.09%; Isomer (%) ([2]; 25° C., Day 30): 3.11%; Isomer (%) ([2]; 25° C., day 0): 3.01%; Isomer (%) ([2]; 60° C., Day 5): 3.12%; Isomer (%) ([2]; 60° C., Day 15): 3.1%; Isomer (%) ([2]; 60° C., Day 30): 3.48%; Isomer (%) ([2]; 60° C., day 0): 3.01%

— US12649746B2, “Ketorolaco derivative, pharmaceutical composition and preparation method therefor and use thereof” (NANJING HERON PHARMACEUTICAL SCIENCE AND TECHNOLOGY CO., …, priority 2020, dated 2026)
